# BindingDB's records for doi:10.1111/cbdd.12530 (Chinese Academy of Sciences, 2015)
# Biological target: Dihydroorotate dehydrogenase (quinone), mitochondrial (Homo sapiens, UniProt Q02127)
# Test: DCIP-linked Assay
# Details: pH 8
# Experimental: Recombinant human DHODH (final enzyme concentration between 20 and 60 nM in the assay well) were incubated at 37 °C in 50 mM Tris-HCl, 0.1% Triton X-100, 1 mM KCN, pH 8.0 with coenzyme Q10 (100 µM), and the tested compounds at different concentrations (final DMSO concentration 0.1% v/v). The reaction was initiatedby the addition of DHO (500 µM), and the reduction of DCIP (50 µM) was monitored through a decrease in absorbance at 650 nm.
# Sequence of Dihydroorotate dehydrogenase (quinone), mitochondrial (Q02127 whole entry): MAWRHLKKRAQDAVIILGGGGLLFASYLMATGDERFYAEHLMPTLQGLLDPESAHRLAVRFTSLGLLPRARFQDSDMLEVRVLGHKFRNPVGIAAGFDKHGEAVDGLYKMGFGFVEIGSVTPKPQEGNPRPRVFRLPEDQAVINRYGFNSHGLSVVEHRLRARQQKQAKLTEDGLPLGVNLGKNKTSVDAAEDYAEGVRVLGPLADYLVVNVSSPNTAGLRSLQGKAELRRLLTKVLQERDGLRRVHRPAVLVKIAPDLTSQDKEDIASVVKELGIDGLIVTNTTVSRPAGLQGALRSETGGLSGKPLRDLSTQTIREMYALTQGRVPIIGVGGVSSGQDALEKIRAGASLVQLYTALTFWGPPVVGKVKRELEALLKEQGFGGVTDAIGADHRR
row,IC50,Compound
1,0.773 µM,O=C1N[C@@H](Cc2ccccc2)C(=O)N2C[C@H](O)C[C@@H]12 [Cyclo L-OH-Pro-L-Phe (Fr. 1-4)]
2,> 50 µM,CC[C@H](C)[C@@H]1NC(=O)[C@@H]2CCCN2C1=O [Cyclo L-Pro-L-Ile (Fr. 1-5)]
3,> 50 µM,CC(C)C[C@@H]1NC(=O)[C@@H]2CCCN2C1=O [Cyclo L-Pro-L-Leu (Fr. 1-6)]
4,> 50 µM,O=C1N[C@@H](Cc2ccccc2)C(=O)N2CCC[C@@H]12 [Cyclo L-Pro-L-Phe (Fr. 2-2)]
5,> 50 µM,CC(C)[C@@H]1NC(=O)[C@@H]2CCCN2C1=O [Cyclo L-Pro-L-Val (Fr. 2-1)]
